Tested on: 266295-075-R-J1-PDC spheroid viability
Assay: Anticancer human tumor 266295-075-R-J1-PDC patient-derived head and neck squamous carcinoma cell line growth inhibition [POLQ]
Details: spheroids with HUVEC and MSC; for IC50: curve of first compound; for viability, T/C: stronger effect = lower value
Method in brief: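 Growth inhibition in 3D: complex spheroids (tumor PDC, HUVEC, MSC) treated with POLQ inhibitor combinations; where Cmax unknown, highest tested concentration 10 microM, except SN-38 at 1 microM.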

[1] = second compound 0.0316 µM, first compound 0.0316 µM
[2] = second compound 0.0316 µM, first compound 0.1 µM
[3] = second compound 0.0316 µM, first compound 0.316 µM
[4] = second compound 0.0316 µM, first compound 1 µM
[5] = second compound 0.0316 µM, first compound 3.16 µM
[6] = second compound 0.0316 µM, first compound 10 µM
[7] = second compound 0.1 µM, first compound 0.0316 µM
[8] = second compound 0.1 µM, first compound 0.1 µM
[9] = second compound 0.1 µM, first compound 0.316 µM
[10] = second compound 0.1 µM, first compound 1 µM
[11] = second compound 0.1 µM, first compound 3.16 µM
[12] = second compound 0.1 µM, first compound 10 µM
[13] = second compound 0.316 µM, first compound 0.0316 µM
[14] = second compound 0.316 µM, first compound 0.1 µM
[15] = second compound 0.316 µM, first compound 0.316 µM
[16] = second compound 0.316 µM, first compound 1 µM
[17] = second compound 0.316 µM, first compound 3.16 µM
[18] = second compound 0.316 µM, first compound 10 µM
[19] = second compound 1 µM, first compound 0.0316 µM
[20] = second compound 1 µM, first compound 0.1 µM
[21] = second compound 1 µM, first compound 0.316 µM
[22] = second compound 1 µM, first compound 1 µM
[23] = second compound 1 µM, first compound 3.16 µM
[24] = second compound 1 µM, first compound 10 µM
[25] = second compound 3.16 µM, first compound 0.0316 µM
[26] = second compound 3.16 µM, first compound 0.1 µM
[27] = second compound 3.16 µM, first compound 0.316 µM
[28] = second compound 3.16 µM, first compound 1 µM
[29] = second compound 3.16 µM, first compound 3.16 µM
[30] = second compound 3.16 µM, first compound 10 µM
[31] = second compound 10 µM, first compound 0.0316 µM
[32] = second compound 10 µM, first compound 0.1 µM
[33] = second compound 10 µM, first compound 0.316 µM
[34] = second compound 10 µM, first compound 1 µM
[35] = second compound 10 µM, first compound 3.16 µM
[36] = second compound 10 µM, first compound 10 µM
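Note: spheroids exposed to compounds for seven days before readout.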

CCc1cc2c(N3CCc4c(cc(Cn5ccnc5)cc4-c4cn(C)nc4C(F)(F)F)C3=O)cc(C)nc2c(OC)n1 + COC1C(OC(N)=O)C(O)C(Oc2ccc3c(O)c(NC(=O)c4ccc(O)c(CC=C(C)C)c4)c(=O)oc3c2C)OC1(C)C was tested, and the IC50 (second compound 0.0316 µM) was greater than 10 µM, the IC50 (second compound 0.1 µM) was greater than 10 µM and the IC50 (second compound 0.316 µM) was greater than 10 µM. For the same molecule, the IC50 (second compound 1 µM) was greater than 10 µM, the IC50 (second compound 3.16 µM) was greater than 10 µM and the IC50 (second compound 10 µM) was greater than 10 µM. It also gave a viability, T/C [1] of 112%, a viability, T/C [2] of 101% and a viability, T/C [3] of 114%. For the same molecule, the viability, T/C [4] was 108%, the viability, T/C [5] was 134% and the viability, T/C [6] was 148%. For the same molecule, the viability, T/C [7] was 105%, the viability, T/C [8] was 102% and the viability, T/C [9] was 93.8%. For the same molecule, the viability, T/C [10] was 121%, the viability, T/C [11] was 134% and the viability, T/C [12] was 157%. The viability, T/C [13] was 85.9%, the viability, T/C [14] was 94.2% and the viability, T/C [15] was 118%. For the same molecule, the viability, T/C [16] was 107%, the viability, T/C [17] was 125% and the viability, T/C [18] was 163%. It also gave a viability, T/C [19] of 75.3%, a viability, T/C [20] of 92.8% and a viability, T/C [21] of 102%. It also gave a viability, T/C [22] of 115%, a viability, T/C [23] of 145% and a viability, T/C [24] of 128%. It also gave a viability, T/C [25] of 106%, a viability, T/C [26] of 95.7% and a viability, T/C [27] of 108%. It also gave a viability, T/C [28] of 113%, a viability, T/C [29] of 126% and a viability, T/C [30] of 147%. For the same molecule, the viability, T/C [31] was 98.6%, the viability, T/C [32] was 83.8% and the viability, T/C [33] was 82.7%. The viability, T/C [34] was 120%, the viability, T/C [35] was 119% and the viability, T/C [36] was 154%.
Molecule CC1COCCN1c1cc(C2(S(C)(=N)=O)CC2)nc(-c2ccnc3[nH]ccc23)n1 (stereo not drawn) + COC1C(OC(N)=O)C(O)C(Oc2ccc3c(O)c(NC(=O)c4ccc(O)c(CC=C(C)C)c4)c(=O)oc3c2C)OC1(C)C has an IC50 (second compound 0.0316 µM) greater than 10 µM, an IC50 (second compound 0.1 µM) greater than 10 µM and an IC50 (second compound 0.316 µM) greater than 10 µM. It also gave an IC50 (second compound 1 µM) greater than 10 µM, an IC50 (second compound 3.16 µM) greater than 10 µM and an IC50 (second compound 10 µM) greater than 10 µM. The viability, T/C [1] was 101%, the viability, T/C [2] was 82.5% and the viability, T/C [3] was 105%. The viability, T/C [4] was 77.9%, the viability, T/C [5] was 74.9% and the viability, T/C [6] was 56.8%. For the same molecule, the viability, T/C [7] was 82.6%, the viability, T/C [8] was 87.9% and the viability, T/C [9] was 89.6%. For the same molecule, the viability, T/C [10] was 87.9%, the viability, T/C [11] was 82.7% and the viability, T/C [12] was 63.5%. It also gave a viability, T/C [13] of 89.2%, a viability, T/C [14] of 86.8% and a viability, T/C [15] of 101%. For the same molecule, the viability, T/C [16] was 81.1%, the viability, T/C [17] was 94.7% and the viability, T/C [18] was 52.2%. It also gave a viability, T/C [19] of 95.4%, a viability, T/C [20] of 105% and a viability, T/C [21] of 95.2%. For the same molecule, the viability, T/C [22] was 92.7%, the viability, T/C [23] was 78.2% and the viability, T/C [24] was 62.2%. It also gave a viability, T/C [25] of 105%, a viability, T/C [26] of 93.6% and a viability, T/C [27] of 91.9%. It also gave a viability, T/C [28] of 81.9%, a viability, T/C [29] of 79.1% and a viability, T/C [30] of 63.1%. For the same molecule, the viability, T/C [31] was 92.4%, the viability, T/C [32] was 105% and the viability, T/C [33] was 88.9%. For the same molecule, the viability, T/C [34] was 72.5%, the viability, T/C [35] was 68.8% and the viability, T/C [36] was 56.1%.
For CC(C)n1c(=O)n(C)c2cnc3cc(F)c(-c4ccc(OCCCN5CCCCC5)nc4)cc3c21 + Nc1ccc(C#CCN(C(=O)Cc2ncc(C(F)(F)F)cc2C(F)(F)F)c2ccc(F)cc2)nn1, the IC50 (second compound 0.0316 µM) was greater than 10 µM, the IC50 (second compound 0.1 µM) was greater than 10 µM and the IC50 (second compound 0.316 µM) was greater than 10 µM. It also gave an IC50 (second compound 1 µM) greater than 10 µM, an IC50 (second compound 3.16 µM) greater than 10 µM and an IC50 (second compound 10 µM) greater than 10 µM. For the same molecule, the viability, T/C [1] was 105%, the viability, T/C [2] was 99.3% and the viability, T/C [3] was 104%. The viability, T/C [4] was 106%, the viability, T/C [5] was 82.8% and the viability, T/C [6] was 76.3%. It also gave a viability, T/C [7] of 93.8%, a viability, T/C [8] of 103% and a viability, T/C [9] of 88%. For the same molecule, the viability, T/C [10] was 80.6%, the viability, T/C [11] was 96% and the viability, T/C [12] was 64.5%. The viability, T/C [13] was 110%, the viability, T/C [14] was 105% and the viability, T/C [15] was 90.2%. It also gave a viability, T/C [16] of 91.3%, a viability, T/C [17] of 89.9% and a viability, T/C [18] of 66.7%. For the same molecule, the viability, T/C [19] was 93.5%, the viability, T/C [20] was 114% and the viability, T/C [21] was 99.4%. For the same molecule, the viability, T/C [22] was 90%, the viability, T/C [23] was 82.2% and the viability, T/C [24] was 65.3%. The viability, T/C [25] was 121%, the viability, T/C [26] was 118% and the viability, T/C [27] was 103%. The viability, T/C [28] was 96.3%, the viability, T/C [29] was 92.4% and the viability, T/C [30] was 87.9%. For the same molecule, the viability, T/C [31] was 96.5%, the viability, T/C [32] was 87.9% and the viability, T/C [33] was 118%. For the same molecule, the viability, T/C [34] was 93.3%, the viability, T/C [35] was 66.4% and the viability, T/C [36] was 71.8%.
In the case of CCc1cc2c(N3CCc4c(cc(Cn5ccnc5)cc4-c4cn(C)nc4C(F)(F)F)C3=O)cc(C)nc2c(OC)n1 + Nc1ccc(C#CCN(C(=O)Cc2ncc(C(F)(F)F)cc2C(F)(F)F)c2ccc(F)cc2)nn1, the IC50 (second compound 0.0316 µM) is reported as greater than 10 µM, the IC50 (second compound 0.1 µM) is reported as greater than 10 µM and the IC50 (second compound 0.316 µM) is reported as greater than 10 µM. It also gave an IC50 (second compound 1 µM) greater than 10 µM, an IC50 (second compound 3.16 µM) greater than 10 µM and an IC50 (second compound 10 µM) greater than 10 µM. It also gave a viability, T/C [1] of 103%, a viability, T/C [2] of 96.2% and a viability, T/C [3] of 127%. For the same molecule, the viability, T/C [4] was 141%, the viability, T/C [5] was 122% and the viability, T/C [6] was 149%. It also gave a viability, T/C [7] of 112%, a viability, T/C [8] of 113% and a viability, T/C [9] of 105%. The viability, T/C [10] was 141%, the viability, T/C [11] was 163% and the viability, T/C [12] was 137%. The viability, T/C [13] was 102%, the viability, T/C [14] was 105% and the viability, T/C [15] was 91%. For the same molecule, the viability, T/C [16] was 144%, the viability, T/C [17] was 129% and the viability, T/C [18] was 152%. The viability, T/C [19] was 106%, the viability, T/C [20] was 94.2% and the viability, T/C [21] was 96.7%. The viability, T/C [22] was 136%, the viability, T/C [23] was 123% and the viability, T/C [24] was 133%. It also gave a viability, T/C [25] of 95.3%, a viability, T/C [26] of 109% and a viability, T/C [27] of 130%. It also gave a viability, T/C [28] of 126%, a viability, T/C [29] of 118% and a viability, T/C [30] of 120%. It also gave a viability, T/C [31] of 106%, a viability, T/C [32] of 93.9% and a viability, T/C [33] of 106%. It also gave a viability, T/C [34] of 115%, a viability, T/C [35] of 127% and a viability, T/C [36] of 139%.

Source: PubChem BioAssay AID1963853 (Molecular Pharmacology Branch, DTP, NCI, 2024)
